The nature of the series: physchem. From the text:
Crucial to the efficacy of any treatment by a pharmaceutical composition is the overall systemic bioavailability of the pharmaceutical composition used for said treatment. […] LogP is one measure of lipophyilicity, and is the octal:water partition coefficient expressed as a log ratio of molecule in octanol relative to water after mixing.

Molecule `CCCCNc1cc(C(=O)N(Cc2ccccc2)Cc2ccccc2)cc(S(N)(=O)=O)c1Oc1ccccc1` [Bumetanide Dibenzylamide, N, N-dibenzyl 3-aminosulfonyl-5-butylamino-4-phenoxybenzamide] returned a logP of about 5.9.
